Among the data in US11447470B2, “Pyrimidinone-containing compound, preparation method thereof, pharmaceutical composition and application thereof” (YUNNAN UNIVERSITY, priority 2018, dated 2022) are EC50 values, retold here.

In the experiment the test system is HIV-1IIIB. Nature of the experiment: Syncytium inhibition experiment, C8166 cells infected with HIV-1IIIB. To be noted: Human immunodeficiency virus 1, 72 h; HIV-1IIIB (MOI=0.04) in C8166 cells, syncytium count, three days. Type of experiment: cell-based. Here is the method:
C8166 cells infected with HIV-1 were used for determining the anti-HIV biological activity at the cellular level. The specific method was described below.
Syncytium inhibition experiment: 100 μL of C8166 cell suspension (4×10^5/mL) was seeded into each well of 96-well cell culture plates containing 5-fold serial dilutions of the compounds, followed by addition of HIV-1IIIB diluted supernatant (MOI=0.04). Triplicate wells were set for each serial concentration. […] The cells were cultured at 37° C. in a 5% CO2 incubator for three days. The number of the syncytia was counted in five non-overlapping fields of view by using an inverted microscope (100×).
With `Cc1ccnc2c1NC(=O)c1cccnc1N2C1CC1` [NVP, Nevirapine, reference compound], the EC50 stood at 58.4 nM.

Turning to `COc1ccc(-c2cc(CSc3nc(CC4CCCCC4)cc(=O)[nH]3)n[nH]2)cc1` [Compound I-46], the EC50 worked out at 3960 nM.

In turn, `O=c1cc(CC2CCCCC2)nc(SCc2cc(-c3ccccc3)[nH]n2)[nH]1` [Compound I-44] showed a 50% effective concentration (EC50) of 5340 nM.

With `CCc1c(CC2CCCCC2)nc(SCc2cc(C(C)(C)C)[nH]n2)[nH]c1=O` [Compound I-30], the midpoint of the response, the EC50, lay at 296 nM.

Compound `CCc1c(CC2CCCCC2)nc(SCc2cc(-c3ccc(C(C)C)cc3)[nH]n2)[nH]c1=O` [Compound I-28] registered a 50% effective concentration (EC50) of 147 nM.

With `CCc1c(CC2CCCCC2)nc(SCc2n[nH]c(-c3cccc(C)c3)c2Cl)[nH]c1=O` [Compound I-24], the EC50 was found to be 86 nM.

In turn, `CCc1c(CC2CCCCC2)nc(SCc2cc(C3CC3)[nH]n2)[nH]c1=O` [Compound I-33] yielded an EC50 of 25 nM.

The compound `CCc1c(CC2CCCCC2)nc(SCc2cc(-c3cccc(F)c3)[nH]n2)[nH]c1=O` [Compound I-14] gave a concentration for a half-maximal effect (EC50) of 35 nM.

`Cc1c(CC2CCCCC2)nc(SCc2cc(-c3ccccc3)[nH]n2)[nH]c1=O` [Compound I-41] had an EC50 of 186 nM.

`CCc1c(CC2CCCCC2)nc(SCc2cc(-c3cccc(C(F)(F)F)c3)[nH]n2)[nH]c1=O` [Compound I-26] displayed an EC50 of 302 nM.

`CCc1c(CC2CCCCC2)nc(SCc2cc[nH]n2)[nH]c1=O` [Compound I-31] gave an EC50 of 33 nM.

The compound `CCc1c(CC2CCCCC2)nc(SCc2cc(-c3ccc(F)cc3)[nH]n2)[nH]c1=O` [Compound I-08] returned a concentration giving a half-maximal response (EC50) of 20 nM.

As for `CCc1c(CC2CCCCC2)nc(SCc2n[nH]c(-c3ccc(F)cc3)c2Cl)[nH]c1=O` [Compound I-09], the 50% effective concentration (EC50) amounted to 18 nM.

As to `CCc1c(CC2CCCCC2)nc(SCc2cc(-c3ccc(SC)cc3)[nH]n2)[nH]c1=O` [Compound I-25], the concentration giving a half-maximal response (EC50) came to 12 nM.

Compound `CCc1c(CC2CCCCC2)nc(SCc2cc(-c3cccc(Br)c3)[nH]n2)[nH]c1=O` [Compound I-03] returned an EC50 of 51 nM.

`CCc1c(CC2CCCCC2)nc(SCc2cc(-c3cccc(Cl)c3)[nH]n2)[nH]c1=O` [Compound I-05] returned an EC50 of 66 nM.

`O=c1cc(CC2CCCCC2)nc(SCc2cc(-c3ccc(F)cc3)[nH]n2)[nH]1` [Compound I-45] gave a half-maximal effective concentration (EC50) of 10100 nM.

The compound `CCc1c(CC2CCCCC2)nc(SCc2n[nH]c(-c3ccc(Cl)cc3)c2Cl)[nH]c1=O` [Compound I-16] showed a concentration giving a half-maximal response (EC50) of 89 nM.

Take `CCc1c(CC2CCCCC2)nc(SCc2n[nH]c(-c3ccc(C)cc3)c2Cl)[nH]c1=O` [Compound I-22]: the midpoint of the response, the EC50, lay at 138 nM.

`CCc1c(CC2CCCCC2)nc(SCc2cc(C)[nH]n2)[nH]c1=O` [Compound I-32] had an EC50 of 28 nM.

In turn, `CCc1c(CC2CCCCC2)nc(SCc2cc(-c3ccc(F)c(F)c3)[nH]n2)[nH]c1=O` [Compound I-18] displayed a 50% effective concentration (EC50) of 162 nM.

Turning to `CCc1c(CC2CCCCC2)nc(SCc2n[nH]c(-c3cccc(C(F)(F)F)c3)c2Cl)[nH]c1=O` [Compound I-27], the EC50 was 182 nM.

Turning to `CCc1c(CC2CCCCC2)nc(SCc2cc(-c3ccc(OC)cc3)[nH]n2)[nH]c1=O` [Compound I-10], the EC50 is 23 nM.

In turn, `CCc1c(CC2CCCCC2)nc(SCc2cc(-c3ccc(C)cc3C)[nH]n2)[nH]c1=O` [Compound I-29] showed an EC50 of 476 nM.

The compound `CCc1c(CC2CCCCC2)nc(SCc2n[nH]c(-c3cccc(Cl)c3)c2Cl)[nH]c1=O` [Compound I-06] yielded a half-maximal effective concentration (EC50) of 57 nM.

In turn, `Cc1c(CC2CCCCC2)nc(SCc2cc(-c3ccc(F)cc3)[nH]n2)[nH]c1=O` [Compound I-42] gave an EC50 of 355 nM.

Regarding `CCc1c(CC2CCCCC2)nc(SCc2cc(-c3ccc(F)cc3F)[nH]n2)[nH]c1=O` [Compound I-20], a half-maximal response (EC50) required 42 nM.

As for `CCc1c(CC2CCCCC2)nc(SCc2n[nH]c(-c3cccc(F)c3)c2Cl)[nH]c1=O` [Compound I-15], a half-maximal effect (EC50) was put at 71 nM.

The EC50 is the midpoint of the concentration-response curve. A lower EC50 goes with a more potent agent.
